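Results reflect a 48-hour exposure of cells in 96-well plates to compound at five concentrations. GI50 = concentration required for 50% inhibition of growth.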 Activity calls are given as the source filed them. No stated cut-off is given here; in the data, active = GI50 up to about 1.1 µM and inactive = higher.
What was measured:
Assay in all cases: growth of human tumour cells (NCI), 48 h
[1] = tested on: OVCAR-5
[2] = tested on: OVCAR-8
[3] = tested on: KM12
[4] = tested on: MDA-N
[5] = tested on: UACC-257
[6] = tested on: HCT-15
[7] = tested on: HCC 2998
[8] = tested on: NCI-H460
[9] = tested on: SF-295
[10] = tested on: SK-MEL-5
[11] = tested on: CAKI-1
[12] = tested on: SN12C
[13] = tested on: NCI-H522
[14] = tested on: SW-620
[15] = tested on: HOP-92
[16] = tested on: NCI-H23
[17] = tested on: MOLT-4
[18] = tested on: HOP-62
[19] = tested on: A498
[20] = tested on: M14
[21] = tested on: 786-0
[22] = tested on: MDA-MB-231
[23] = tested on: SK-MEL-28
[24] = tested on: RPMI-8226
[25] = tested on: SNB-75
[26] = tested on: PC-3
[27] = tested on: OVCAR-4
[28] = tested on: Hs-578T
[29] = tested on: DU-145
[30] = tested on: A549
[31] = tested on: HT-29
[32] = tested on: U-251
[33] = tested on: MCF7
[34] = tested on: NCI/ADR-RES
[35] = tested on: SK-MEL-2
[36] = tested on: HCT-116
[37] = tested on: SF-268
[38] = tested on: CCRF-CEM
[39] = tested on: TK-10
[40] = tested on: Malme-3M
[41] = tested on: UACC-62
[42] = tested on: BT-549
[43] = tested on: K562
[44] = tested on: T47D
[45] = tested on: UO-31
[46] = tested on: LOX IMVI
[47] = tested on: SR
[48] = tested on: RXF 393
[49] = tested on: OVCAR-3
[50] = tested on: MDA-MB-435
[51] = tested on: COLO 205
[52] = tested on: SNB-19
[53] = tested on: ACHN
[54] = tested on: NCI-H226
[55] = tested on: SK-OV-3
[56] = tested on: HL-60
[57] = tested on: EKVX
[58] = tested on: IGROV-1

For `COc1ncc(C#CC(=O)c2ccccc2OC)c(OC)n1`, the GI50 [1] was 3410 nM (inactive), the GI50 [2] was 2060 nM (inactive) and the GI50 [3] was 5700 nM (inactive). The GI50 [4] was 1640 nM (inactive), the GI50 [5] was 3520 nM (inactive) and the GI50 [6] was 621 nM. The GI50 [7] was 6350 nM (inactive), the GI50 [8] was 6340 nM (inactive) and the GI50 [9] was 16900 nM (inactive). The GI50 [10] was 2060 nM (inactive), the GI50 [11] was 1770 nM (inactive) and the GI50 [12] was 684 nM (active). The GI50 [13] was 738 nM (active), the GI50 [14] was 780 nM (active) and the GI50 [15] was 2320 nM (inactive). For the same compound, the GI50 [16] was 2730 nM (inactive), the GI50 [17] was 386 nM (active) and the GI50 [18] was 17700 nM (inactive). The GI50 [19] was 18400 nM (inactive), the GI50 [20] was 1780 nM (inactive) and the GI50 [21] was 1860 nM (inactive). The GI50 [22] was 920 nM (active), the GI50 [23] was 2860 nM (inactive) and the GI50 [24] was 2610 nM (inactive). The GI50 [25] was 4030 nM (inactive), the GI50 [26] was 1860 nM (inactive) and the GI50 [27] was 5780 nM (inactive). For the same compound, the GI50 [28] was 9980 nM (inactive), the GI50 [29] was 5870 nM (inactive) and the GI50 [30] was 5980 nM (inactive). The GI50 [31] was 1570 nM (inactive), the GI50 [32] was 3890 nM (inactive) and the GI50 [33] was 736 nM (active). The GI50 [34] was 2010 nM (inactive), the GI50 [35] was 2300 nM (inactive) and the GI50 [36] was 4980 nM (inactive). For the same compound, the GI50 [37] was 3610 nM (inactive), the GI50 [38] was 99.5 nM (active) and the GI50 [39] was 891 nM (active). The GI50 [40] was 1610 nM (inactive), the GI50 [41] was 2600 nM (inactive) and the GI50 [42] was 1930 nM (inactive). The GI50 [43] was 390 nM (active), the GI50 [44] was 2930 nM (inactive) and the GI50 [45] was 1550 nM (inactive). For the same compound, the GI50 [46] was 281 nM (active), the GI50 [47] was 202 nM (active) and the GI50 [48] was 1710 nM (inactive). The GI50 [49] was 3150 nM (inactive), the GI50 [50] was 2780 nM (inactive) and the GI50 [51] was 2000 nM (inactive). For the same compound, the GI50 [52] was 15000 nM (inactive), the GI50 [53] was 1690 nM (inactive) and the GI50 [54] was 1420 nM (inactive). The GI50 [55] was 25600 nM (inactive), the GI50 [56] was 432 nM (active) and the GI50 [57] was 3250 nM (inactive). For the same compound, the GI50 [58] was 1820 nM (inactive).
